Row | Compound | melting point
1 | CCCc1nn(CC)c2c(=O)[nH]c(C)nc12 | 211 to 213 °C
2 | CC(C)C(=O)N(O)C(C)c1cc(C(C)(C)C)c(O)c(C(C)(C)C)c1 (stereo unspecified) | 147 to 148 °C
3 | N#CNC=NCc1ncc(C(F)(F)F)cc1Cl | 106 to 108 °C
4 | CCCCCCCCCCCCCCCCCCOc1ccc(OCCCc2ccccc2)c(C(=O)O)c1 | 68 to 70 °C
5 | Cc1c(Br)ccc2c1oc1ccccc12 | 124 to 125 °C
6 | Oc1ccc(-c2cc3cc(O)cc(-c4nnco4)c3o2)cc1 | 260 to 266 °C
7 | CCOC(=O)c1cnc2snc(C)c2c1NCS(=O)(=O)c1ccc(Oc2ccc(Cl)cc2)cc1 | 117 to 120 °C
8 | N#CCc1c[nH]c2ccc(OCc3ccccc3)c(Cl)c12 | 130 to 132 °C
9 | O=C(O)C1C2CC3C(C2=O)C31 (stereo unspecified) | 144 to 145 °C
10 | COCCOc1cc2ncnc(Nc3cc(OC)c(Br)cc3OC)c2cc1OC | 217 to 221 °C
11 | CC(C)(C)c1cc(C(C)(C)C)c2oc(N)c(-c3ccccc3)c2c1 | 174 to 178 °C
12 | CC(C)CNC(=O)C(C)NC(=O)C(C)NC(=O)C(C)NC(=O)CCCC(=O)O (stereo unspecified) | 292 to 293 °C
13 | CCOC(=O)c1c(C(F)(F)F)nc(C(F)F)c(C(=O)O)c1N | 142 to 151 °C
14 | Cc1ccc(Cn2nc(C(=O)NC3C(C)CCCC3C)cc2-c2ccc(Cl)c(Cl)c2)cc1Cl (stereo unspecified) | 59.9 °C
15 | N#CCCC(C#N)CSc1ccc2ccccc2c1 (stereo unspecified) | 52 to 55 °C
16 | CCOC(=O)c1cc(C)n(-c2cccc(S(C)(=O)=O)c2)c1-c1ccccc1 | 131 to 133 °C
17 | Cc1c(Br)c(Br)nn1C(C)C(=O)N(C)C(C)C (stereo unspecified) | 95 to 96.5 °C
18 | CN1Cc2c(C#Cc3ccccc3Cl)ncn2-c2ccc(F)cc2C1=O | 259 to 261 °C
19 | CCCc1cc(=O)oc2cc(O)c3c(c12)OC(C)(C)C=C3 | 190 to 192 °C
20 | CC(C)(C)c1ccc(/C=N/OCCOc2ccc(C(=O)O)c(OC(=O)c3ccccc3)c2)cc1 | 129 to 131 °C
21 | COc1cccc(-c2nc(N)nc(Nc3ccc(O)cc3)n2)c1 | 93.5 to 94 °C
22 | Cc1csc(-c2cc(=O)n(C)c3ccc(C(O)(c4ccc(Cl)cc4)c4cncn4C)cc23)n1 (stereo unspecified) | 200 °C
23 | CC(C)(C)C(CS(=O)(=O)c1ccc(Oc2ccc(OC(F)(F)F)cc2)cc1)N(O)C=O (stereo unspecified) | 160 °C
24 | OC(COc1ccc(Cl)cc1)CSCc1ccc(Cl)cc1 (stereo unspecified) | 107 to 108 °C

Row | Compound | melting point
25 | CCn1cc(-c2coc3ccc(-c4nnc(C)o4)cc23)cn1 | 122 to 123 °C
26 | COc1cc(CSC2=NCCS2)nc(N)n1 | 122 to 124 °C
27 | CC(NC(=O)c1ccc(I)cc1)C(O)c1ccccc1 (stereo unspecified) | 209 to 210 °C
28 | CC1=NCCSC1=NOC(=O)N(C)C | 64 to 65 °C
29 | Fc1ccc(-c2ncn(CCCOc3ccccc3)c2-c2ccncc2)cc1 | 95 to 96 °C
30 | Cc1noc(C)c1-c1cncc(OC2SCC(O)C(O)C2O)c1 (stereo unspecified) | 222 to 223 °C
31 | Cc1oc(-c2ccccc2)nc1CCOc1ccc(C=CC#N)cc1 | 112 to 113 °C
32 | CC(C)NC(=O)Nc1cc(C(C)(C)C)on1 | 135 to 138 °C
33 | Cc1ccccc1Nc1ccccc1C=C(Br)Br | 65 to 67 °C
34 | C=CCOc1ccc(-c2nc3ccccc3o2)cc1 | 95 to 96 °C
35 | CCC(Oc1ccc(CCC(=O)c2ccc(-c3ccc(C(F)(F)F)cc3)s2)c(Cl)c1Cl)C(=O)O (stereo unspecified) | 169 to 171 °C
36 | COc1ccc(COc2ccc(CSc3ccc(OCC(=O)O)c(C)c3)cc2)cc1 | 150 to 152 °C
37 | NC(=S)NC(c1ccccc1)c1ccc(Cl)cc1 (stereo unspecified) | 173 to 175 °C
38 | CC(C)(N)c1ccc(-c2nc(Nc3cc(F)c(F)c(F)c3)ncc2C#N)cc1 | 220 °C
39 | COc1cccc(Oc2c(NS(=O)(=O)c3ccc(C(C)(C)C)cc3)ncnc2SCCOc2ncccn2)c1 | 168 °C
40 | CC(C)c1ccc2oc(C(O)COc3ccc(CO)cc3)cc2c1 (stereo unspecified) | 98 to 100 °C
41 | COc1ccc(C(Sc2ccccc2N)C(O)C(=O)O)cc1 (stereo unspecified) | 167 to 168 °C
42 | Cc1cc(-n2cnnc2)cc(C=O)c1N | 250 to 252 °C
43 | O=C1[C@@H]2C[C@H](Oc3ccc(Br)cc3)CN2C(=O)N1c1cc(Cl)cc(Cl)c1 | 116 °C
44 | CCc1cc(=O)n(-c2cc(C(=O)OC(C)C)c(Cl)cc2F)c(=O)[nH]1 | 121 to 124 °C
45 | C/C(=C\CNC(=O)c1ccccc1)c1ccccc1 | 139 °C
46 | Cc1c(C#N)cc(C(C)(C)C)c(O)c1C(=O)Nc1ccc(S(=O)c2ccc(Br)cc2)cc1C(F)(F)F (stereo unspecified) | 178 to 180 °C
47 | COCN1CC(CN)c2c[nH]c3cccc(c23)C1=O (stereo unspecified) | 160 to 163 °C
48 | CNc1ccc(C#N)c(F)c1 | 110 to 112 °C

Next, values leading:

Row | melting point | Compound
49 | 133 to 134 °C | CCOC(=O)Cc1cccc(C(=O)c2ccccc2)c1NC(C)=O
50 | 105 to 106 °C | C=C(Cl)C(=O)Nc1ccc(Cl)cc1
51 | 89 to 95 °C | CCNC(=O)c1ccc(C2(C(N)=O)CN(C(=O)OC(C)(C)C)CCc3c2cc(CC)c(CC)c3Cl)cc1 (stereo unspecified)
52 | > 300 °C | Cc1c(F)c(N2CCC(N)C2)c(F)c2c1c(=O)c(C(=O)O)cn2C1CC1 (stereo unspecified)
53 | 122 to 124 °C | CCN(CC)C(=O)c1ccc2cc(C(=O)O)ccc2c1
54 | 247 to 249 °C | CN1CCC(c2[nH]c(=O)c3ccccc3c2-c2ccccc2F)CC1
55 | 94 to 95 °C | C[C@@H]1CN(c2ccc(C(F)(F)F)cn2)C[C@H](C)N1CC(=O)N1CC=C(c2ccc3ccccc3n2)CC1
56 | 236 to 238 °C | Clc1ccc(Nc2nc3ccccc3c3[nH]c(C4CCCCCC4)nc23)cc1Cl
57 | 206 to 208 °C | Cc1ccc(-c2ccc(C(=O)Nc3ccc4cc(CN5CCCC5)cnc4c3)cc2)cc1
58 | 104 to 106 °C | CCOC(=O)c1c(CN(CC)CC)nc2sc3c(c2c1-c1ccc(Cl)cc1)CCNC3
59 | 232 to 234 °C | Cn1ncc(C(=O)N2CCC2)c1C(=O)Nc1ccn2nc(N3CCOCC3)nc2c1
60 | 194 to 195 °C | CC(=O)OCC(=O)C1(OC(C)=O)C(C)CC2C3CC(C)C4=CC(=O)CCC4(C)C3(F)C(O)CC21C (stereo unspecified)
61 | 81 to 82 °C | CSC1Oc2ccccc2C1=O (stereo unspecified)
62 | 25 °C | COCCc1ccc(OCC(O)CO)cc1 (stereo unspecified)
63 | 161 to 163 °C | C[C@H](NC(=O)[C@@H](CC(=O)O)NC(=O)c1ccccc1)C(=O)N1CCC[C@H]1C(=O)O
64 | 160 to 163 °C | CCc1nn(C(C)C)c2cc(C(=O)O)ccc12
65 | 77.5 to 79 °C | CCONC(CC)=C1C(=O)CC(C(C)(C)Sc2ccc(C)cc2)CC1=O (stereo unspecified)
66 | 104 to 107 °C | CSCC(C)Nc1nccc(-c2ccnc(Nc3cccc(F)c3)c2)n1 (stereo unspecified)
67 | 111 to 114 °C | Cc1ccc(C)c(C(=O)c2ccccc2)c1O
68 | 189 to 190 °C | COCCOc1cc(N(C)S(=O)(=O)c2cccs2)c2[nH]c(C3=NCC(CC(N)=O)S3)cc2c1 (stereo unspecified)
69 | 78 to 80 °C | COc1cc(C=CC(=O)CSc2ccccc2)ccc1O
70 | 116 to 117 °C | O=C(NCc1ccc2ccn(C3CCN(CCc4ccc(F)cc4)CC3)c2c1)C1CC1
71 | 301 to 303 °C | CC(=O)OCCCOc1ccc2nc3c(cc2c1)NCN3
72 | 189 to 191 °C | CC1(C)Oc2ccc([N+](=O)[O-])cc2C(C(N)=O)=C1O
73 | 147 to 149 °C | Cc1cc(C)c(NC(=O)N(Cc2ccc3c(c2)Cc2ccccc2-3)C2CCCCC2)c(C)c1
74 | 159 to 160 °C | CON1C=C(C)N=C(NC(=O)NS(=O)(=O)c2ccccc2C=CC(F)(F)F)N1
75 | 71 to 72 °C | CCOC(=O)c1cc2c(=O)ccoc2nc1C(=O)OCC

Row | melting point | Compound
76 | 272 to 273 °C | NC(=NO)c1cccc(-c2nc3sccn3c2-c2ccnc(NC3CCCN(S(=O)(=O)c4ccc(Cl)cc4)C3)n2)c1 (stereo unspecified)
77 | 173 °C | O=C(CCO)N[C@H]1CC[C@H](CCN2CCN(c3nccc4c3CCO4)CC2)CC1
78 | 76 to 80 °C | Cc1onc(C(=O)c2c(F)cccc2F)c1NC(=O)CBr
79 | 86 to 89 °C | CCNc1ncccc1-c1sccc1-c1cccnc1F
80 | 125 to 127 °C | CCCCCCCCCCCCOCC1CN(c2cc3c(cc2F)c(=O)c(C(=O)O)cn3CC)CCN1 (stereo unspecified)
81 | 56 to 57 °C | CCCCOc1c(NCCCBr)c(=O)c1=O
82 | 194 to 195 °C | Cc1cn(C)c2c1N(C(=O)CCBr)c1ccccc1NC2=O
83 | 205 to 207 °C | O=C(Nc1ccc(-n2nc(C(F)(F)F)cc2C(F)(F)F)cc1)c1ccc(Br)cc1
84 | 118 to 124 °C | CCCN(Cc1ccc(-c2ccccc2-c2nc(=O)s[nH]2)cc1)c1nc2ccccc2cc1C(=O)O
85 | 158 to 159 °C | COCn1ccnc1C(O)(c1ccccc1)c1ccc(C(F)(F)F)cc1 (stereo unspecified)
86 | 246 to 249 °C | O=C(O)C1=C(C(F)(F)F)COc2ccc3ccccc3c21
87 | 212 to 215 °C | O[C@H]1CC[C@H](n2cnc(-c3ccc(F)cc3)c2-c2ccnc(Oc3ccccc3)n2)CC1
88 | 125 to 126 °C | CCOC(=O)C1=C(C)NC(C)=C(C(=O)OCC)C1c1cccc(Br)c1
89 | 134 to 135 °C | COc1ccc(C2=NN(c3ccccc3)C(=O)[C@H]3CC=CC[C@@H]23)cc1OC1CCCC1 (relative stereo)
90 | 76 to 77 °C | COc1c([N+](=O)[O-])cc(C(C)=O)c2c1CCCC2
91 | 50 to 51 °C | CCCCCCNc1nc(N)nc2c1ncn2C1CC(F)C(CO)O1 (stereo unspecified)
92 | 120 °C | Cc1c(CC(=O)N[C@@H](CO)C(=O)O)cc(-c2ccc(S(C)(=O)=O)cc2)n1-c1ccc(F)cc1
93 | 67 to 68 °C | O=C(NCCCCCCO)OCc1ccccc1
94 | 127 to 130 °C | CC(=O)Nc1nc(NCCSC(C)=O)n[nH]1
95 | 210 to 215 °C | CC(C)C1COCc2nc3c(N)nc4cc(O)ccc4c3n21 (stereo unspecified)
96 | 125 to 127 °C | CC(C)c1ccc(OCCCN2CCN(c3ccc(Cl)nn3)CC2)cc1
97 | 100 to 101 °C | COC(=O)C1C(c2ccc(F)c(C)c2)=CC2(CC1(C)C)SCCCS2 (stereo unspecified)
98 | 70 to 72 °C | CCOC(=O)C1CCc2c(c3ccccc3n2C(=O)c2ccc(C)cc2)C1 (stereo unspecified)
99 | 99 to 102 °C | COc1cc(NC(=O)OC(C)(C)C)c(NC(=O)CC(=O)c2cccc(-n3ccnc3)c2)cc1-c1ccc(F)cc1C
100 | 298 to 302 °C | CNc1c(Cl)cc2c3c(cccc13)C(=O)N(C1CCN(C)CC1)C2=O
101 | 245 to 247 °C | CCc1nc2c(N)nc3ccccc3c2n1CC1(O)CCOC1 (stereo unspecified)
